Where two headings read alike, the source gives them in different places. Numbered stars: 1 amine (or outer) side, 2 acyl side, 3 side chain; on linkers, the order of the positions; unused ones are H or OH. Bridge positions count the residues as written; N and C are the ends. Square brackets hold non-standard residues; d marks the D form. Peptide text beside a SMILES is read from it. X4 = CC(C)c1cccc2c(C[C@H](N[*:1])C(=O)[*:2])c[nH]c12; Trp(7-Me) = Cc1cccc2c(C[C@H](N)C(=O)O)c[nH]c12; Trp(1-Me) = Cn1cc(C[C@H](N)C(=O)O)c2ccccc21; 2Nal = N[C@@H](Cc1ccc2ccccc2c1)C(=O)O; AEF = NCCOc1ccc(C[C@H](N)C(=O)O)cc1; Cit = NC(=O)NCCC[C@H](N)C(=O)O; Pen = CC(C)(S)[C@H](N)C(=O)O; αMeK = C[C@](N)(CCCCN)C(=O)O; Aib = CC(C)(N)C(=O)O; βAla = NCCC(=O)O

One data set has as its target T1, IL-23R (Homo sapiens, UniProt Q5VWK5).
T1 sequence (Q5VWK5 24-629): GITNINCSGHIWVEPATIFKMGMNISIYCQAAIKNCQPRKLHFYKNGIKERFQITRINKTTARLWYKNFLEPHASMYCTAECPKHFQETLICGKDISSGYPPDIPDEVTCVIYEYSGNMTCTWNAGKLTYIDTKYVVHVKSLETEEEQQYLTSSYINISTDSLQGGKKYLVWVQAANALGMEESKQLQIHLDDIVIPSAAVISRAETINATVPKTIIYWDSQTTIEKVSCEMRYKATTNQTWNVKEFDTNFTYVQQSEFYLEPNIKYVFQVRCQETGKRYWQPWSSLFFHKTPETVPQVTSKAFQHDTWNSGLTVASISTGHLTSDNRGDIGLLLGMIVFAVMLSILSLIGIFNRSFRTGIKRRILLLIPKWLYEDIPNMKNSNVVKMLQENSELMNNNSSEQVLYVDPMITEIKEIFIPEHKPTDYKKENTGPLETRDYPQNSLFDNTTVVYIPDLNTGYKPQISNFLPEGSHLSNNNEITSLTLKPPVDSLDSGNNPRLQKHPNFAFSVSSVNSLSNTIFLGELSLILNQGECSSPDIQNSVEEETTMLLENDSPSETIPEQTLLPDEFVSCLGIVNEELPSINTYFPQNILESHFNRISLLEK
The data set is described as follows: DB cells IL23R pSTAT3 cell assay (pStat3 HTRF). The data set is classed as cell-based. An outline of the steps:
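HTRF readout of lysate pSTAT3 (Tyr705) after two-plate processing. Peptide dilution series co-incubated with IL-23 (0.5 nM final) on 5×10E5 IL-23R-expressing DB cells per well, 30 min, 37 °C.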

A short description of data set [1]: in vitro. As to conditions: human, pH 6.8; for half-life at 20 μM: 20% fecal homogenate (supernatant), anaerobic.
Procedure: Fecal homogenate (20%) was prepared by adding 4 mL of growth medium (1 liter contains 2 g peptone water powder, 2 g yeast extract, 0.1 g NaCl, 0.04 g KH2PO4, 0.01 g CaCl2·6H2O, 0.01 g MgSO4·7H2O, 2 mL Tween 80, 0.5 g bile salts, 0.5 g L-cysteine HCl, 2 g NaHCO3, and 10 μL Vitamin K, pH adjusted to 6.8, and sterilized by filtration through a 0.22 μm filter) to every gram of feces (pooled freshly collected human or cynomolgus monkey feces). The suspension was vortexed to break up large clumps, and homogenized using a bead mill homogenizer. Centrifuged the homogenate at 2800×g for 15 min. The supernatant is taken out and used for incubations. DMSO stocks (10 mM) were first prepared for the test compounds. Incubations were performed in an anaerobic chamber conditioned at 37° C. Aliquots of the DMSO solutions were dosed into 1.0 mL aliquots of 20% fecal homogenate, which are pre-warmed to 37° C. The final test compound concentration was 20 μM. At each timepoint (0, 20 min, 1, 3, 6, or 24 hours), 100 μL aliquot of each incubation mixture is taken out and added to separate tubes containing 300 μL of 50% acetonitrile/50% methanol and an internal standard to terminate the reaction. Samples were taken out of the anaerobic chamber and stored at 4° C. until the end of the experiment. After the final timepoint is sampled, the tubes were mixed and then centrifuged at 3,000 rpm for 10 minutes. Aliquots of the supernatant were removed, diluted 1:1 into distilled water containing 0.1% formic acid, and analyzed by LC/MS/MS. Percent remaining at each timepoint was calculated based on the peak area response ratio of test to compound to internal standard. Time 0 was set to 100%, and all later timepoints were calculated relative to time 0. Half-lives were calculated by fitting to a first-order exponential decay equation using Graphpad or Excel.
Data set [2] in a line: in vitro. The note with it: cynomolgus monkey, pH 6.8; for half-life at 20 μM: 20% fecal homogenate (supernatant), anaerobic.
The nature of data set [3]: in vitro. The note with it: both, SD, rat; for half-life at 20 μM: plasma (EDTA).
Procedure: Peptides of interest (20 μM) were incubated with pre-warmed rat plasma (SD rat, mixed gender pooled, EDTA, filtered through 0.22 μm, BioreclamationIVT) at 37° C. […] Quenched samples were stored at 4° C. until the end of the experiment and centrifuged at 4,000 rpm for 10 minutes. The supernatant were diluted 1:1 with deionized water and analyzed using LC-MS. Percentage remaining at each time point was calculated based on the peak area ratio (analyte over internal standard) relative to the initial level at time zero. Half-lives were calculated by fitting to a first-order exponential decay equation using GraphPad.
[4] abbreviates: Table E3, DB cells, IL-23 0.5 nM, 30 minutes at 37° C., read-out: pStat3 HTRF (IC50).

Broadly, the IC50 is the concentration that gives 50% inhibition. In general, half-life refers to the time needed for the level to fall by half in the phase considered. Read a low half-life as fast loss. Regarding `CC(=O)NCCCC[C@@H]1NC(=O)[C@H](Cc2c[nH]c3c(C(C)C)cccc23)NC(=O)[C@H]([C@@H](C)O)NC(=O)[C@H](CC(N)=O)NC(=O)[C@@H](NC(C)=O)C(C)(C)SSC(C)(C)[C@@H](C(=O)N[C@@H](Cc2ccc(OCCN)cc2)C(=O)N[C@@H](Cc2ccc3ccccc3c2)C(=O)N[C@@](C)(CCCCN)C(=O)N[C@@H](CCCCNC(C)=O)C(=O)N[C@@H](CC(N)=O)C(=O)N[C@H](CC(C)C)C(N)=O)NC1=O` [compound 286] (Ac-[Pen]NT[X4]K(Ac)[Pen][AEF][2Nal][αMeK]K(Ac)N[dL]-NH2; disulfide 1-6), the IC50 at IL-23R (setting [4]) lay in the range of 1 to 10 nM. Also, the half-life at 20 μM in the data set “in vitro [1]”, in the data set “in vitro [2]” and in the data set “in vitro [3]” was greater than 24 h in each case.
With `CC(=O)NCCCC[C@H](NC(=O)[C@](C)(CCCCN)NC(=O)[C@H](Cc1ccc2ccccc2c1)NC(=O)[C@H](Cc1ccc(OCCN)cc1)NC(=O)[C@H]1NC(=O)C(C)(C)NC(=O)[C@H](Cc2c[nH]c3c(C)cccc23)NC(=O)[C@H]([C@@H](C)O)NC(=O)[C@H](CC(N)=O)NC(=O)[C@@H](NC(C)=O)C(C)(C)SSC1(C)C)C(=O)N[C@@H](CC(N)=O)C(=O)NCCC(N)=O` [compound 241] (Ac-[Pen]NT[Trp(7-Me)][Aib][Pen][AEF][2Nal][αMeK]K(Ac)N[βAla]-NH2; disulfide 1-6), on IL-23R (setting [4]), the IC50 is 10 to 100 nM. Moreover, the values for the half-life at 20 μM in “in vitro [1]”, in the data set “in vitro [2]” and in the data set “in vitro [3]” were greater than 24 h, 15 h and greater than 24 h, respectively.
Turning to `CC(=O)NCCCC[C@H](NC(=O)[C@](C)(CCCCN)NC(=O)[C@H](Cc1ccc2ccccc2c1)NC(=O)[C@H](Cc1ccc(OCCN)cc1)NC(=O)[C@H]1NC(=O)[C@H](CCC(N)=O)NC(=O)[C@H](Cc2c(C(C)(C)C)[nH]c3c(C(C)(C)C)cc(C(C)(C)C)cc23)NC(=O)[C@H]([C@@H](C)O)NC(=O)[C@H](CC(N)=O)NC(=O)[C@@H](NC(C)=O)C(C)(C)SSC1(C)C)C(=O)N[C@@H](CC(N)=O)C(=O)NCCC(N)=O` [compound 233], on IL-23R (setting [4]), the IC50 is greater than 100 nM. Also, the half-life at 20 μM in “in vitro [1]”, in the data set “in vitro [2]” and in the data set “in vitro [3]” was greater than 24 h each time.
As to `CC(=O)NCCCC[C@H](NC(=O)[C@](C)(CCCCN)NC(=O)[C@H](Cc1cn(C)c2ccccc12)NC(=O)[C@H](Cc1ccc(OCCN)cc1)NC(=O)[C@H]1NC(=O)[C@H](CCC(N)=O)NC(=O)[C@H](Cc2c[nH]c3c(C)cccc23)NC(=O)[C@H]([C@@H](C)O)NC(=O)[C@H](CC(N)=O)NC(=O)[C@@H](NC(C)=O)C(C)(C)SSC1(C)C)C(=O)N[C@@H](CC(N)=O)C(=O)NCCC(N)=O` [compound 283] (Ac-[Pen]NT[Trp(7-Me)]Q[Pen][AEF][Trp(1-Me)][αMeK]K(Ac)N[βAla]-NH2; disulfide 1-6), at IL-23R (setting [4]), the IC50 was 1 to 10 nM. In addition, the half-life at 20 μM in the data set “in vitro [1]” is greater than 24 h; in “in vitro [2]”, 17 h; in “in vitro [3]” it was greater than 24 h.
In turn, `CC(=O)NCCCC[C@@H]1NC(=O)[C@H](Cc2c[nH]c3c(C)cccc23)NC(=O)[C@H]([C@@H](C)O)NC(=O)[C@H](CC(N)=O)NC(=O)[C@@H](NC(C)=O)C(C)(C)SSC(C)(C)[C@@H](C(=O)N[C@@H](Cc2ccc(OCCN)cc2)C(=O)N[C@@H](Cc2ccc3ccccc3c2)C(=O)N[C@@](C)(CCCCN)C(=O)N[C@@H](CCCCNC(C)=O)C(=O)N[C@@H](CC(N)=O)C(=O)N[C@H](CC(N)=O)Cc2ccccc2)NC1=O` [compound 247] displayed an IC50 at IL-23R of 1 to 10 nM. For the same compound, the half-life at 20 μM in the data set “in vitro [1]”, in “in vitro [2]” and in the data set “in vitro [3]” was greater than 24 h throughout.
Turning to `CC(=O)NCCCC[C@H](NC(=O)[C@](C)(CCCCN)NC(=O)[C@H](Cc1ccc2ccccc2c1)NC(=O)[C@H](Cc1ccc(OCCN)cc1)NC(=O)[C@H]1NC(=O)[C@H](CCCNC(N)=O)NC(=O)[C@H](Cc2c[nH]c3c(C)cccc23)NC(=O)[C@H]([C@@H](C)O)NC(=O)[C@H](CC(N)=O)NC(=O)[C@@H](NC(C)=O)C(C)(C)SSC1(C)C)C(=O)N[C@@H](CC(N)=O)C(=O)N[C@@H](CO)C(N)=O` [compound 260] (Ac-[Pen]NT[Trp(7-Me)][Cit][Pen][AEF][2Nal][αMeK]K(Ac)NS-NH2; disulfide 1-6), the IC50 on IL-23R (setting [4]) was less than 1 nM. For the same compound, the half-life at 20 μM was 15 h in the data set “in vitro [1]”, 3 h in “in vitro [2]” and greater than 24 h in “in vitro [3]”.
In the same order, the values of `CC(=O)N[C@@H]1C(=O)N[C@@H](CC(N)=O)C(=O)N[C@@H]([C@@H](C)O)C(=O)N[C@@H](Cc2c[nH]c3c(C)cccc23)C(=O)N[C@@H](CCC(N)=O)C(=O)N[C@H](C(=O)N[C@@H](Cc2ccc(OCCN)cc2)C(=O)N[C@@H](Cc2ccc3ccccc3c2)C(=O)N[C@@](C)(CC(C)C)C(=O)NCC(=O)N2CCC[C@H]2C(=O)NCCC(N)=O)C(C)(C)SSC1(C)C` [compound 219] are 10 to 100 nM, 16 h, 24 h and 3 h.
With `CC(=O)NCCCC[C@H](NC(=O)[C@](C)(CC(C)C)NC(=O)[C@H](Cc1ccc2ccccc2c1)NC(=O)[C@H](Cc1ccc(OCCN)cc1)NC(=O)[C@H]1NC(=O)[C@H](CCC(N)=O)NC(=O)[C@H](Cc2c[nH]c3c(C)cccc23)NC(=O)[C@H]([C@@H](C)O)NC(=O)[C@H](CC(N)=O)NC(=O)[C@@H](NC(C)=O)C(C)(C)SSC1(C)C)C(=O)N[C@H](Cc1ccccc1)C(=O)NCCC(N)=O` [compound 213], the IC50 on IL-23R (setting [4]) lay in the range of 10 to 100 nM. For the same compound, the half-life at 20 μM is greater than 24 h in the data set “in vitro [1]”, greater than 24 h in the data set “in vitro [2]” and less than 0.3 h in the data set “in vitro [3]”.
Turning to `CC(=O)NCCCC[C@H](NC(=O)[C@](C)(CC(C)C)NC(=O)[C@H](Cc1ccc2ccccc2c1)NC(=O)[C@H](Cc1ccc(OCCN)cc1)NC(=O)[C@H]1NC(=O)[C@H](CCC(N)=O)NC(=O)[C@H](Cc2c[nH]c3c(C)cccc23)NC(=O)[C@H]([C@@H](C)O)NC(=O)[C@H](CC(N)=O)NC(=O)[C@@H](NC(C)=O)C(C)(C)SSC1(C)C)C(=O)N[C@H](Cc1c[nH]cn1)C(=O)NCCC(N)=O` [compound 215], the half-maximal inhibitory concentration (IC50) on IL-23R (setting [4]) was 1 to 10 nM. Further, the half-life in the data set “in vitro [1]” (tissue homogenate) is greater than 24 h; in the data set “in vitro [2]” (tissue homogenate), greater than 24 h; in “in vitro [3]” (plasma), 2 h.
For `CC(=O)N[C@@H]1C(=O)N[C@@H](CC(N)=O)C(=O)N[C@@H]([C@@H](C)O)C(=O)N[C@@H](Cc2c[nH]c3c(C)cccc23)C(=O)N[C@@H](CCC(N)=O)C(=O)N[C@H](C(=O)N[C@@H](Cc2ccc(OCCN)cc2)C(=O)N[C@@H](Cc2ccc3ccccc3c2)C(=O)N[C@@](C)(CC(C)C)C(=O)NCC(=O)N2CCC[C@@H]2C(=O)NCCC(N)=O)C(C)(C)SSC1(C)C` [compound 220], the IC50 at IL-23R (setting [4]) was greater than 100 nM. Besides, the half-life at 20 μM was greater than 24 h in the data set “in vitro [1]”, 21 h in the data set “in vitro [2]” and 1 h in the data set “in vitro [3]”.
In the same order, the values of `CC(=O)NCCCC[C@H](NC(=O)[C@](C)(CCCCN)NC(=O)[C@H](Cc1ccc2ccccc2c1)NC(=O)[C@H](Cc1ccc(OCCN)cc1)NC(=O)[C@H]1NC(=O)[C@H](CCCNC(N)=O)NC(=O)[C@H](Cc2c[nH]c3c(C)cccc23)NC(=O)[C@H]([C@@H](C)O)NC(=O)[C@H](CC(N)=O)NC(=O)[C@@H](NC(C)=O)C(C)(C)SSC1(C)C)C(=O)N[C@@H](CC(N)=O)C(=O)N[C@H](CCCNC(=N)N)C(N)=O` [compound 256] (Ac-[Pen]NT[Trp(7-Me)][Cit][Pen][AEF][2Nal][αMeK]K(Ac)N[dR]-NH2; disulfide 1-6) are less than 1 nM, greater than 24 h, greater than 24 h and greater than 24 h.

The values above are taken from US20260116921A1, “PEPTIDE INHIBITORS OF INTERLEUKIN-23 RECEPTOR AND THEIR USE TO TREAT INFLAMMATORY DISEASES” (priority 2018, published 2026).
